In patent US20250049809A1, “INHIBITORS OF MUTANT IDH1 AND IDH2” (Board of Regents, The University of Texas System, priority 2023, published 2025) one finds ring closure, yield after HPLC, IC50 and ring closure, isolated yield data, which are given here for twelve compounds.

The conditions of data set [1]: from C=CCCCC(c1ccc([C@H](C)Nc2ncc3c(n2)N(CC=C)C(=O)OC3)cc1)N1CCN(C(=O)OC(C)(C)C)CC1; rcm bond; 17-membered ring; Hoveyda-Grubbs II (2 x 0.1 eq); DCE; 8.67 mM; 60.0 °C; 15.0 h.
Data set [2] addresses U87 IDH1R132H (Homo sapiens (Human), UniProt O75874, R132H). Description: U87 IDH1 R132H 2-HG cellular assay. The data set is classed as cell-based. As to conditions: extracellular 2HG, 24 h treatment, IDH1 mutant-U-87 isogenic cell line. The method, then:
The IDH1 mutant-U-87 isogenic cell line (ATCC HTB-14IG) used to test cellular inhibition is a glioma IDH1R132H mutant isogenic line derived from the parental U-87MG cell line. These cells are maintained in EMEM (ATCC 30-2003) culture media with 10% FBS and 10 U/mL Penicillin-Streptomycin. Twelve thousand cells are plated in polystyrene 384 well cell culture plates (Greiner Bio-One 781091) (12,000 cells/well) approximately 18 hours before compound treatment. Immediately before treatment, the cells are washed twice with PBS, followed by culture media replenishing. Cells are then treated with different concentrations of test compounds (5 μM to 0.3 pM) for 24 h. Extracellular 2HG levels are measured from cell culture media. For analyte extraction, 30 μL of culture media is transferred to 120 uL 100% acetonitrile in a deep 384 well plate and mixed well, followed by 5 min centrifugation at 3700 rpm at room temperature. 100 μL of supernatant is transferred to a flat bottom 384 well plate. Samples are run on the Agilent RapidFire-Mass Spectrometry instrument to detect 2HG levels. The samples from each well were aspirated for 600 ms and loaded onto a HILIC solid-phase extraction cartridge (Agilent) followed by a wash step for 3000 ms with 90% acetonitrile containing 5 mM ammonium acetate. Analytes were then eluted off the cartridge into the Agilent 6460 Triple Quad mass spectrometer with a 4500 ms elution step using 30% acetonitrile containing 5 mM ammonium acetate. The HILIC cartridge was then re-equilibrated by 90% acetonitrile containing 5 mM ammonium acetate for 500 ms. The 2HG was detected by an Agilent 6460 Triple Quad mass spectrometer in negative ion mode. Multiple reaction monitoring was used to quantify 2HG using the precursor ion and product ion at m/z 147.03 and 128.9, respectively. The percent activity of each sample is calculated by using DMSO and control compound treated references, and IC50 values are obtained using the GeneData Screener data analysis program.

The target in data set [3] is TF1 IDH2R140Q (Homo sapiens (Human), UniProt P48735, R140Q). The experiment in a line: TF1 IDH2 R140Q 2-HG cellular assay. It is filed as cell-based. Conditions: extracellular 2HG, 24 hr treatment, IDH2 mutant-TF1 isogenic cell line. The method, then: The IDH2 mutant-TF1 isogenic cell line (ATCC CRL-20031G) used to test cellular inhibition is an erythroblast cell line that was isolated from the marrow of a patient with erythroleukemia with the IDH2R140Q mutation. These cells are maintained in RPMI-1640 (ATCC 30-2001) culture media with 10% FBS, 10 U/mL Penicillin-Streptomycin, and 2 ng/mL GM-CSF. Thirty thousand cells are plated in polystyrene tissue culture treated 384 well cell culture plates (PerkinElmer 6007680) (30,000 cells/well) approximately 2 hours before compound treatment. Cells are then treated with different concentrations of test compounds (5 μM to 0.3 pM) for 24 hr. Extracellular 2HG levels are measured from cell culture media. For analyte extraction, 30 μL of culture media is transferred to 120 μL 100% acetonitrile in a deep 384 well plate and mixed well, followed by 5 min centrifugation at 3700 rpm at room temperature. 100 μL of supernatant is transferred to a flat bottom 384 well plate. Samples are run on the Agilent RapidFire-Mass Spectrometry instrument to detect 2HG levels. The samples from each well were aspirated for 600 ms and loaded onto a HILIC solid-phase extraction cartridge (Agilent) followed by a wash step for 3000 ms with 90% acetonitrile containing 5 mM ammonium acetate. Analytes were then eluted off the cartridge into the Agilent 6460 Triple Quad mass spectrometer with a 4500 ms elution step using 30% acetonitrile containing 5 mM ammonium acetate. The HILIC cartridge was then re-equilibrated by 90% acetonitrile containing 5 mM ammonium acetate for 500 ms. The 2HG was detected by an Agilent 6460 Triple Quad mass spectrometer in negative ion mode. Multiple reaction monitoring was used to quantify 2HG using the precursor ion and product ion at m/z 147.03 and 128.9, respectively. The percent activity of each sample is calculated by using DMSO and control compound treated references, and IC50 values are obtained using the GeneData Screener data analysis program.
Chain of TF1 IDH2R140Q (P48735 40-452 R140Q): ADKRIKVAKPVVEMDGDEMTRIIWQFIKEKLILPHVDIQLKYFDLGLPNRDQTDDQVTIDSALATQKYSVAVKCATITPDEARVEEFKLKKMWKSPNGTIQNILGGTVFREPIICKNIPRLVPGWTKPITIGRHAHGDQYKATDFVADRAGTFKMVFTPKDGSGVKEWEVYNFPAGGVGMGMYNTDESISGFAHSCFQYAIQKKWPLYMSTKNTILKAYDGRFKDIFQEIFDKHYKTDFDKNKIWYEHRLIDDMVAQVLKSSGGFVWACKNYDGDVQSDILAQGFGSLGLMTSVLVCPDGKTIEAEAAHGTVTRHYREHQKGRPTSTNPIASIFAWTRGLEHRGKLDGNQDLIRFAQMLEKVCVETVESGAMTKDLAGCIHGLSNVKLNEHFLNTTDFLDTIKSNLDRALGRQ

For data set [4], the target named is mIDH1R132H/S280F (Homo sapiens (Human), UniProt O75874, R132H/S280F). Description: mIDH1 R132H/S280F enzymatic activity assay (NADPH fluorescence). It is filed as biochemical. As to conditions: enzyme assay, 1 hour preincubation; read-out: IDH1R132H/S280F IC50. The method, then:
(§1) The enzymatic activity of mIDH1R132H/S280F was assessed by measuring the fluorescence of the NADPH. The assay was performed in 384 well, white ProxiPlates (PerkinElmer, 6008280) in assay buffer containing 50 mM Hepes (Life Technologies, 15630080), 50 mM KCl (Teknova, P0327), 10 mM MgCl2 (Sigma-Aldrich, M1028), 1 mM DTT (Sigma-Aldrich, 43815), 0.02% BSA (Sigma-Aldrich, A3059) at pH 7.5. The final reaction volume was 10 μL. Stock solutions of the test compounds were prepared in 100% DMSO (Sigma, D2650) and serially diluted 1:3 using 100% DMSO. 50 nL of compound were then transferred to the assay plate using the Beckman Coulter ECHO 650 Acoustic Liquid Handler for a final DMSO concentration of 0.5%. 5 μL of a mIDH1R132H/S280F and NADPH (Santa Cruz, SC202725C) mixture were added to the assay plate for a final concentration of 2 nM and 10 PM, respectively. 5 μL of NADPH alone were added to negative control wells followed by a 1 hour preincubation at room temperature. 5 μL of alphaketoglutarate (Sigma-Aldrich, K1128) were added to the assay plate for a final concentration of 120 μM. Fluorescence of NADPH (excitation: 350 nm, emission 450 nm) was immediately measured kinetically for approximately 90 minutes using the BioTek Synergy Neo plate reader.

The target in data set [5] is mIDH2R140Q (Homo sapiens (Human), UniProt P48735, R140Q). Description: mIDH2 R140Q enzymatic activity assay (NADPH fluorescence). The data set is classed as biochemical. Conditions: enzyme assay, 1 hour preincubation; read-out: IDH2R140Q IC50. The method, then: as §1, with “of mIDH2R140Q” for “of mIDH1R132H/S280F”, “a mIDH2R140Q” for “a mIDH1R132H/S280F”, “of 3” for “of 2”, “10 μM,” for “10 PM,”, “of 300” for “of 120”, “approximately 150” for “approximately 90”
Chain of mIDH2R140Q (P48735 40-452 R140Q): as above

The conditions of data set [6]: rcm bond.

Each structure is given as a SMILES string. pIC50: −log10 of the molar value. Like-named read-outs stand apart in the source and are kept apart here.

Chain of U87 IDH1R132H (O75874 whole entry R132H): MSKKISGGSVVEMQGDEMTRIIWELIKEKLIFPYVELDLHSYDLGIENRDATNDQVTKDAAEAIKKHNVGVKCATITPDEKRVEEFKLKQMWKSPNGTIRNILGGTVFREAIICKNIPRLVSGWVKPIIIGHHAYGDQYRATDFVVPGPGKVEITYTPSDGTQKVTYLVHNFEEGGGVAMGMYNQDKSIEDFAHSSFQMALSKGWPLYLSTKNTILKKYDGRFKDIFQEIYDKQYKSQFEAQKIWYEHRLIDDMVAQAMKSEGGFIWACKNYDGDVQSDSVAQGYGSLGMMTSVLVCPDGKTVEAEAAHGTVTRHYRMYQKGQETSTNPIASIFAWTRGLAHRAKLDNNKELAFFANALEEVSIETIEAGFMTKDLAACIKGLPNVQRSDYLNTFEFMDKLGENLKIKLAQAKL
Chain of mIDH1R132H/S280F (O75874 whole entry R132H/S280F): as the sequence (O75874 whole entry R132H) above, with S280F counted along it

As to `C[C@@H]1Nc2ncc3c(n2)N(CC=CCCCC(N2CCN(C(=O)OC(C)(C)C)CC2)c2ccc1cc2)C(=O)OC3` (some centres unmarked), the ring closure, yield after HPLC in data set [1] amounted to 21%.
On to `C=CC(=O)N1CCN(C2CCCCCCN3C(=O)OCc4cnc(nc43)N[C@@H](C)c3ccc2cc3)CC1` (single isomer, unassigned) [Example 8], for which the pIC50 in data set [2] was 9.72; in data set [3], 6.45; in data set [4] it was 6.04; in data set [5], 5.33.
On to `C=CC(=O)N1CCN(C2CCC/C=C/CN3C(=O)OCc4cnc(nc43)N[C@@H](C)c3ccc2cc3)CC1` (stereo partly drawn) [Example 6, (3S,Z)-5-(4-acryloylpiperazin-1-yl)-3-methyl-1^1,1^4-dihydro-1^2H-2-aza-1(7,1)-pyrimido[4,5-d][1,3]oxazina-4(1,4)-benzenacycloundecaphan-9-en-1^2-one], for which the figures for the pIC50 in data set [2] and in data set [3] were 9.59 and 5.76, respectively.
Take `C[C@@H]1Nc2ncc3c(n2)N(CCCCC=CCCC(N2CCN(C(=O)OC(C)(C)C)CC2)c2ccc1cc2)C(=O)OC3` (some centres unmarked): the ring closure, isolated yield in data set [6] (from C=CCCCCN1C(=O)OCc2cnc(N[C@@H](C)c3ccc(C(CCC=C)N4CCN(C(=O)OC(C)(C)C)CC4)cc3)nc21, 19-membered ring, Hoveyda-Grubbs II (0.21 eq), DCE, 16.6 mM, 60.0 °C, 9.0 h) stood at 49.2%.
Regarding `C=CC(=O)N1CCN(C2CCCC/C=C/CCN3C(=O)OCc4cnc(nc43)N[C@@H](C)c3ccc2cc3)CC1` (stereo partly drawn) [Example 5, (3S,E)-5-(4-acryloylpiperazin-1-yl)-3-methyl-1^1,1^4-dihydro-1^2H-2-aza-1(7,1)-pyrimido[4,5-d][1,3]oxazina-4(1,4)-benzenacyclotridecaphan-10-en-12-one], the values for the pIC50 in data set [2] and in data set [3] were 10.00 and 6.67, respectively.
As to `C=CC(=O)N1CCN(C2CCCCCC[C@H](C)N3C(=O)OCc4cnc(nc43)N[C@@H](C)c3ccc2cc3)CC1` (stereo partly drawn) [Example 9, (3S,12S)-5-(4-acryloylpiperazin-1-yl)-3,12-dimethyl-1^1,1^4-dihydro-1^2H-2-aza-1(7,1)-pyrimido[4,5-d][1,3]oxazina-4(1,4)-benzenacyclododecaphan-1^2-one], the pIC50 was 9.85 in data set [2], 6.30 in data set [3], 7.03 in data set [4] and 5.83 in data set [5].
Taken in the same sequence, the figures for `C=CC(=O)N1CCN(C2CC/C=C\CCCCN3C(=O)OCc4cnc(nc43)N[C@@H](C)c3ccc2cc3)CC1` (stereo partly drawn) [Example 2, (3S,Z)-5-(4-acryloylpiperazin-1-yl)-3-methyl-1^1,1^4-dihydro-1^2H-2-aza-1(7,1)-pyrimido[4,5-d][1,3]oxazina-4(1,4)-benzenacyclotridecaphan-8-en-1^2-one] were 9.51, 6.47, 6.55 and 5.74.
As for `C=CC(=O)N1CCN(C2COCCCC[C@H](C)N3C(=O)OCc4cnc(nc43)N[C@@H](C)c3ccc2cc3)CC1` (stereo partly drawn) [Example 10, (3S,12S)-5-(4-acryloylpiperazin-1-yl)-3,12-dimethyl-1^1,1^4-dihydro-1^2H-7-oxa-2-aza-1(7,1)-pyrimido[4,5-d][1,3]oxazina-4(1,4)-benzenacyclododecaphan-1^2-one], the pIC50 in data set [2] was 9.51; in data set [3] it was 5.91; in data set [4], 7.08; in data set [5], 5.30.
Compound `C[C@@H]1Nc2ncc3c(n2)N(CC=CCCCC(=O)c2ccc1cc2)C(=O)OC3` yielded a ring closure, isolated yield in data set [6] (from C=CCCCC(=O)c1ccc([C@H](C)Nc2ncc3c(n2)N(CC=C)C(=O)OC3)cc1, 17-membered ring, Grubbs II (2 portions), DCM, 2.04 mM, 40.0 °C, 84.0 h) of 52%.
As to `C=CC(=O)N1CCN(C2CCCCCCN3C(=O)OCc4cnc(nc43)N[C@@H](C)c3ccc2cc3)CC1` (single isomer, unassigned) [Example 7], the pIC50 was 9.62 in data set [2], 6.91 in data set [3], 6.53 in data set [4] and 5.76 in data set [5].
Turning to `C[C@@H]1Nc2ncc3c(n2)N(CC=CCCCCC(=O)c2ccc1cc2)C(=O)OC3`, in data set [6] (from C=CCCCCC(=O)c1ccc([C@H](C)Nc2ncc3c(n2)N(CC=C)C(=O)OC3)cc1, 18-membered ring, Grubbs II (0.1 eq), DCM, 2.6 mM, 45.0 °C, 48.0 h), the ring closure, isolated yield stood at 36.5%.
`C=CC(=O)N1CCN(C2CCCCCCCCN3C(=O)OCc4cnc(nc43)N[C@@H](C)c3ccc2cc3)CC1` (stereo partly drawn) [Example 1, (3S)-5-(4-acryloylpiperazin-1-yl)-3-methyl-1^1,1^4-dihydro-1^2H-2-aza-1(7,1)-pyrimido[4,5-d][1,3]oxazina-4(1,4)-benzenacyclotridecaphan-1^2-one]: the pIC50 is 9.49 in data set [2], 6.57 in data set [3], 6.99 in data set [4] and 5.88 in data set [5].
